Experimental data from patent publication US20090221095A1, “Colorimetric Screening of DNA Binding/Intercalating Agents with Gold Nanoparticle Probes” (NORTHWESTERN UNIVERSITY, priority 2005, published 2009).

Columns and labels:
[1] = test system: triplex DNA (DNA-1, DNA-2, DNA-3); test: UV melting (260 nm) of unmodified triplex DNA-1, DNA-2, DNA-3 (no nanoparticles); assay type: binding; conditions: solution-phase unmodified DNA, 1 μM each strand, 6 μM binder, 0.5 M NaCl 10 mM PBS
Description: To compare the results from the previous examples with more traditional screening techniques, all eight intercalators were screened, plus a control, by monitoring UV absorbance melting curves (260 nm) of unmodified DNA-1, DNA-2, and DNA-3 (1 μM each), with each intercalator (10 μM), (DNA-1; 3′ TTCTTCTTTTTT CT-5′. DNA-2: 5′-TTCTTCTTTTTTCT-3′, DNA-3: 5′-AAGAAGAAAAAA-3′). (FIG. 2B). The melting experiment performed in the presence of BePl has two melting transitions. The first Tm at 34.8° C. is associated with the denaturation of the triplex structure and the second Tm at 61.4° C. is representative of the corresponding duplex.
To determine the Tm of the duplex DNA in the presence of DNA binders, 2 μM duplex DNA and 5 μM DNA binder were combined in 0.3 M NaCl 10 mM PBS. To determine the Tm of the triplex DNA in the presence of DNA binders, 1 μM of each strand and 6 μM of each DNA binder were combined in 0.5 M NaCl 10 mM PBS. UV-vis melting curves were measured on a CARRY 500 spectrophotometer equipped with a circulating bath. The melting process was monitored by measuring the change in extinction at 260 nm. The solutions were stirred continuously with a magnetic stir bar as the solution temperature was increased at a rate of 0.5° C./min. The first derivative generated from the melting curves was used to determine the Tm.
A melting transition associated with the triple helix was found only for experiments performed in the presence of BePI (34.8° C.) and CORA (17.1° C.) where BePI is determined to be the stronger binder. This is in agreement with the results determined by the chip-based scanometric method described above.

[2] = test system: triplex DNA on chip surface; test: Chip-based scanometric detection of triplex DNA binders (silver enhancement); assay type: binding; conditions: 0.3 M NaCl, binder 5 μM, DNA-3 150 nM
Description: For scanometric detection of duplex or triplex DNA binding molecules, Au nanoparticles (1 nM) and DNA binding molecules (5 μM) in 10 mM PBS buffer of varying NaCl concentrations were added to the microarray slide under hybridization wells (Nanosphere, Inc.). For detection of triplex binders, 150 nM DNA-3 was added. DNA hybridization proceeded for 30 min (for duplex DNA binders) or 1 h (for triplex DNA binders) in a humidity chamber. After hybridization, the slides were washed three times with 0.5 M NaNO3 containing 0.02% Tween 20. The arrays were dried using a benchtop spinner. Silver enhancement solution (Nanosphere, Inc.) was added for Au-NP signal amplification (1 mL total volume/array, 1.5-min development time for duplex DNA binding molecules and 3 min for triplex binding molecules). The reaction was terminated by washing the slides with NANOpure® water and spin-drying. Light-scattering images from the silver-enhanced chips were recorded using the high-resolution Verigene ID system (Nanosphere, Inc.).
Capture strands of synthetic oligonucleotides are patterned on a glass chip using a microarrayer. The DNA chip is then exposed to a solution containing three components: 1) complementary DNA (no nanoparticles), 2) DNA functionalized Au nanoparticles (DNA is non-complementary to the arrayed DNA) and 3) DNA binders, Scheme 4. The complementary solution-phase DNA, called DNA-3 in Scheme 2, hybridizes to the DNA on the chip surface and forms a duplex. The Au nanoparticle-bound DNA has the correct sequence to form a triplex with the surface bound duplex through sequence-specific Hoogsteen, or reverse Hoogsteen, base pairing. The triplex structure is relatively unstable at room temperature and will only form in the presence of triplex DNA binding molecules. The presence of the triplex DNA binding molecules increase the stability of the triplex, immobilizing the Au nanoparticles on the chip surface. The chip was then exposed to silver enhancement solution for further signal enhancement and then imaged using a Verigene ID scanner.
The assay was performed in the presence of two triplex binders, coralyn (CORA) and benzo[e]pyridoindole (BePI), seven duplex DNA binders, 4′,6-diamidino-2-phenylindole (DAPI), ellipticine (EIPT), amsacrine (AMSA), daunorubicin (DNR), anthraquinone-2-carboxylic acid (AQ2A), ethidium bromide (EB), and 9-aminoacridine (9-AA))., and one control (no DNA-3). Similar to the DNA duplex, the formation of the DNA triplex is a reversible process which is affected by both temperature and salt concentration. However, compared to the duplex, the stability of the triplex is much more sensitive to salt concentration. Therefore, to determine the relative binding strength of the triplex DNA binders, the assay was performed at varying salt concentrations, FIG. 7. At 0.3 M NaCl, both the strong (BePI) and weaker (CORA) triplex binders show signal.

COc1cc2cc3c4cc(OC)c(OC)cc4cc[n+]3c(C)c2cc1OC [CORA, coralyn]
Tm 2-1 ([1]; duplex melting transition): 60.1 °C | Tm3-2 ([1]; triple helix melting transition, ND read as not detected): 17.1 °C | scanometric signal [2]: show signal
